{
  "source": "patent US20220054513A1",
  "about": "“COMBINATION COMPOSITIONS COMPRISING A BETA-LACTAMASE INHIBITOR” (VenatoRx Pharmaceuticals, Inc., priority 2018, published 2022)",
  "tested_on": "carbapenem resistant Enterobacteriaceae (CRE)",
  "experiment": "MIC of cefiderocol with Compound 1 vs approved BL/BLI combinations, 120 CRE isolates",
  "conditions": "Klebsiella pneumoniae, IDM",
  "description": "A panel of 30 strains of characterized Enterobacteriaceae isolates produce Ambler class A, B, C, and D β-lactamase were used. […] IDM was prepared by adding 100 g of chelex (a chelating agent) to 1 L of sterile CAMBH and stirring for 2 hours. The chelex treated media was then filtered using a 0.2 μm filter and divalent Ca, Mg, and Zn are added back at relevant concentrations. The pH was adjusted to 7.2 using HCl and the media was filtered again to ensure sterility. This created a medium that was devoid of iron but retains appropriate concentration of other cations and was necessary for evaluating the activity of cefiderocol originating from its uptake by bacterial iron transporters. Bacteria strains were grown for 3-5 hours in CAMHB and IDM. Cefiderocol was added either to a microtiter plate in 2-fold serial dilutions in CAMHB and in parallel in IDM. […] Once the test articles were added the plates were inoculated according to CLSI broth microdilution method.\nThe challenge set of organisms consisted of a variety of Enterobacteriaceae species expressing IMP (n=30), NDM (30), VIM (15), KPC (n=30), and AmpC (n=15).",
  "data": [
    {"smiles": "CC(C)(O/N=C(\\C(=O)N[C@@H]1C(=O)N2C(C(=O)[O-])=C(C[N+]3(CCNC(=O)c4ccc(O)c(O)c4Cl)CCCC3)CS[C@H]12)c1csc(N)n1)C(=O)O", "note": "[FDC, cefiderocol]", "values": [
      {"measurement": "MIC", "setting": "Klebsiella pneumoniae 845667 (KPC-3)", "value": 1, "unit": "µg/mL"},
      {"measurement": "MIC", "setting": "Klebsiella pneumoniae 845670 (KPC-3)", "value": 0.25, "unit": "µg/mL"},
      {"measurement": "MIC", "setting": "Klebsiella pneumoniae 845904 (KPC-3)", "value": 2, "unit": "µg/mL"},
      {"measurement": "MIC", "setting": "Klebsiella pneumoniae 847204 (KPC-2)", "value": 0.5, "unit": "µg/mL"},
      {"measurement": "MIC", "setting": "Klebsiella pneumoniae 847375 (SHV-12, KPC-2)", "value": 1, "unit": "µg/mL"},
      {"measurement": "MIC", "setting": "Klebsiella pneumoniae 847378 (SHV-12, KPC-2)", "value": 4, "unit": "µg/mL"},
      {"measurement": "MIC", "setting": "Klebsiella pneumoniae 847379 (CTX-M-2, KPC-2)", "value": 0.125, "unit": "µg/mL"},
      {"measurement": "MIC", "setting": "Klebsiella pneumoniae 847383 (KPC-2)", "value": 2, "unit": "µg/mL"},
      {"measurement": "MIC", "setting": "Klebsiella pneumoniae 847384 (SHV-12, KPC-2)", "value": 1, "unit": "µg/mL"},
      {"measurement": "MIC", "setting": "Klebsiella pneumoniae 847387 (SHV-12, KPC-2)", "value": 2, "unit": "µg/mL"},
      {"measurement": "MIC", "setting": "Klebsiella pneumoniae 847747 (CTX-M-2, KPC)", "value": 0.5, "unit": "µg/mL"},
      {"measurement": "MIC", "setting": "Klebsiella pneumoniae 848561 (SHV-11, CTX-M-3, KPC)", "value": 2, "unit": "µg/mL"},
      {"measurement": "MIC", "setting": "Klebsiella pneumoniae 848562 (SHV-11, KPC-3)", "value": 1, "unit": "µg/mL"},
      {"measurement": "MIC", "setting": "Klebsiella pneumoniae 848563 (KPC-3)", "value": 0.5, "unit": "µg/mL"},
      {"measurement": "MIC", "setting": "Klebsiella pneumoniae 848566 (SHV-11, KPC-3)", "value": 1, "unit": "µg/mL"},
      {"measurement": "MIC", "setting": "Klebsiella pneumoniae 848600 (KPC-3)", "value": 1, "unit": "µg/mL"},
      {"measurement": "MIC", "setting": "Klebsiella pneumoniae 848788 (KPC-2)", "value": 0.5, "unit": "µg/mL"},
      {"measurement": "MIC", "setting": "Klebsiella pneumoniae 848790 (KPC-2)", "value": 2, "unit": "µg/mL"},
      {"measurement": "MIC", "setting": "Klebsiella pneumoniae 848791 (SHV-12, KPC-2)", "value": 4, "unit": "µg/mL"},
      {"measurement": "MIC", "setting": "Klebsiella pneumoniae 848828 (SHV-12, KPC-2)", "value": 4, "unit": "µg/mL"},
      {"measurement": "MIC", "setting": "Klebsiella pneumoniae 848832 (KPC-2)", "value": 0.5, "unit": "µg/mL"},
      {"measurement": "MIC", "setting": "Klebsiella pneumoniae 848842 (SHV-2A, KPC-2)", "value": 1, "unit": "µg/mL"},
      {"measurement": "MIC", "setting": "Klebsiella pneumoniae 848844 (SHV-11, KPC-2)", "value": 4, "unit": "µg/mL"},
      {"measurement": "MIC", "setting": "Klebsiella pneumoniae 890066 (SHV-33; TEM-33; CTX-M-15; IMP-1)", "value": 0.5, "unit": "µg/mL"},
      {"measurement": "MIC", "setting": "Klebsiella pneumoniae 1212142 (NDM-6)", "value": 4, "unit": "µg/mL"},
      {"measurement": "MIC", "setting": "Klebsiella pneumoniae 1212258 (NDM-6)", "value": 4, "unit": "µg/mL"},
      {"measurement": "MIC", "setting": "Klebsiella pneumoniae 1212290 (NDM-6)", "value": 4, "unit": "µg/mL"},
      {"measurement": "MIC", "setting": "Klebsiella pneumoniae 1212347 (NDM-6)", "value": 4, "unit": "µg/mL"},
      {"measurement": "MIC", "setting": "Klebsiella pneumoniae 1212352 (NDM-6)", "value": 1, "unit": "µg/mL"},
      {"measurement": "MIC", "setting": "Klebsiella pneumoniae 1251598 (VIM-26)", "value": 0.5, "unit": "µg/mL"},
      {"measurement": "MIC", "setting": "Klebsiella pneumoniae 1251599 (VIM-26)", "value": 0.5, "unit": "µg/mL"},
      {"measurement": "MIC", "setting": "Klebsiella pneumoniae 1251600 (VIM-26)", "value": 0.25, "unit": "µg/mL"},
      {"measurement": "MIC", "setting": "Klebsiella pneumoniae 1251604 (VIM-26)", "value": 0.25, "unit": "µg/mL"},
      {"measurement": "MIC", "setting": "Klebsiella pneumoniae 1277372 (NDM-7)", "value": 2, "unit": "µg/mL"},
      {"measurement": "MIC", "setting": "Klebsiella pneumoniae 1277416 (IMP-26)", "value": 0.5, "unit": "µg/mL"},
      {"measurement": "MIC", "setting": "Klebsiella pneumoniae 1286102 (NDM-7)", "value": 4, "unit": "µg/mL"},
      {"measurement": "MIC", "setting": "Klebsiella pneumoniae 1286206 (NDM-7)", "value": 4, "unit": "µg/mL"},
      {"measurement": "MIC", "setting": "Klebsiella pneumoniae 1369220 (NDM-6)", "value": 8, "unit": "µg/mL"},
      {"measurement": "MIC", "setting": "Klebsiella pneumoniae 1369251 (NDM-6)", "value": 16, "unit": "µg/mL"},
      {"measurement": "MIC", "setting": "Klebsiella pneumoniae 1369306 (NDM-6)", "value": 8, "unit": "µg/mL"},
      {"measurement": "MIC", "setting": "Klebsiella pneumoniae 1371650 (NDM-6)", "value": 4, "unit": "µg/mL"},
      {"measurement": "MIC", "setting": "Klebsiella pneumoniae 1371730 (NDM-6)", "value": 1, "unit": "µg/mL"},
      {"measurement": "MIC", "setting": "Klebsiella pneumoniae 1379123 (NDM-4)", "value": 4, "unit": "µg/mL"},
      {"measurement": "MIC", "setting": "Klebsiella pneumoniae 1385577 (NDM-4)", "value": 8, "unit": "µg/mL"},
      {"measurement": "MIC", "setting": "Klebsiella pneumoniae 1385586 (NDM-4)", "value": 4, "unit": "µg/mL"},
      {"measurement": "MIC", "setting": "Klebsiella pneumoniae 1385622 (NDM-4)", "value": 2, "unit": "µg/mL"},
      {"measurement": "MIC", "setting": "Klebsiella pneumoniae 1420892 (IMP-4)", "value": 2, "unit": "µg/mL"},
      {"measurement": "MIC", "setting": "Klebsiella pneumoniae 1455463 (NDM-4)", "value": 8, "unit": "µg/mL"},
      {"measurement": "MIC", "setting": "Klebsiella pneumoniae 1455545 (NDM-4)", "value": 0.5, "unit": "µg/mL"},
      {"measurement": "MIC", "setting": "Klebsiella pneumoniae 1459396 (NDM-7)", "value": 1, "unit": "µg/mL"},
      {"measurement": "MIC", "setting": "Klebsiella pneumoniae 1459398 (NDM-7)", "value": 8, "unit": "µg/mL"},
      {"measurement": "MIC", "setting": "Klebsiella pneumoniae 1591688 (IMP-4)", "value": 1, "unit": "µg/mL"},
      {"measurement": "MIC", "setting": "Klebsiella pneumoniae 1591702 (IMP-4)", "value": 1, "unit": "µg/mL"},
      {"measurement": "MIC", "setting": "Klebsiella pneumoniae 1607267 (IMP-4)", "value": 4, "unit": "µg/mL"},
      {"measurement": "MIC", "setting": "Klebsiella pneumoniae 1610707 (VIM-24)", "value": 0.25, "unit": "µg/mL"},
      {"measurement": "MIC", "setting": "Klebsiella pneumoniae 1621162 (VIM-12)", "value": 0.5, "unit": "µg/mL"},
      {"measurement": "MIC", "setting": "Klebsiella pneumoniae CDC-0034 (IMP-4, TEM-1B, SHV-11)", "value": 0.25, "unit": "µg/mL"},
      {"measurement": "MIC", "setting": "Klebsiella pneumoniae CDC-0080 (IMP-4, TEM-1B, OKP-B-2, OXA-1, SFO-1)", "value": 0.5, "unit": "µg/mL"},
      {"measurement": "MIC", "setting": "Klebsiella pneumoniae IHMA 469384 (IMP-26, SHV-12)", "value": 0.059, "unit": "µg/mL"},
      {"measurement": "MIC", "setting": "Klebsiella pneumoniae IHMA 511121 (IMP-26)", "value": 1, "unit": "µg/mL"},
      {"measurement": "MIC", "setting": "Klebsiella pneumoniae IHMA 511128 (IMP-26)", "value": 2, "unit": "µg/mL"},
      {"measurement": "MIC", "setting": "Klebsiella pneumoniae IHMA 511163 (IMP-26)", "value": 4, "unit": "µg/mL"},
      {"measurement": "MIC", "setting": "Klebsiella pneumoniae IHMA 600482 (CTX-M-15, IMP-26)", "value": 2, "unit": "µg/mL"},
      {"measurement": "MIC", "setting": "Klebsiella pneumoniae SI-128 (IMP-5)", "value": 2, "unit": "µg/mL"}
    ]}
  ]
}
